Experimental data as given in publication PMC11489226 (Archives of Toxicology, 2024).

What was measured:
[1] = system: HEK293CYP2A6 cells; assay: Neutral comet assay in HEK293CYP2A6 cells; format: cell-based, human; details: for Comet assay: percentage of tail DNA / DNA damage above background: 20 or 30 µM
Procedure: (§1) For neutral comet assays, transgenic CYP2A6 and transgenic CYP2C9 cells were treated with parent PCBs for 5 h. After treatments, 50 μL of a suspension of 10^5 cells/mL were washed in PBS and resuspended in 500 μL of preheated agarose (37 °C). The agarose/cell suspensions were applied to microscopic slides and left for 30 min at 4 °C to allow gel polymerization. After cell lysis using a commercial buffer (Trevigen, Gaithersburg, USA), single-cell gel electrophoresis was performed at 1 V/cm for 1 h. After precipitation of the DNA with ammonium acetate, samples were fixed in 70% ethanol for 30 min and dried. To visualize dsDNA, SYBR™ Green I Nucleic Acid Gel Stain (Invitrogen, Carlsbad, USA) was used. Pictures of at least 50 cells/section were taken using a fluorescence microscope (DMRX, Leica: 450–490 nm BP- filter, 40 × magnification). The extent of the genotoxic effect of PCBs was calculated using the ImageJ-based OpenComet software.

[2] = system: HEK293CYP2C9 cells; assay: Neutral comet assay in HEK293CYP2C9 cells; format: cell-based, human; details: HEK293CYP2C9 control cells; 20 or 30 µM
Procedure: as §1

[3] = system: HEK293CYP2C9 cells; assay: Micronucleus assay in HEK293CYP2C9 cells; format: cell-based, human; details: 20 and 30 µM, 24 h
Procedure: (§2) Transgenic HEK293CYP2A6 and HEK293CYP2C9 cells were cultured in T25 flasks, with a seeding density of 1 × 10^6 cells per flask at 37 °C with 5% CO2. Cells were allowed to grow for 24 h geneticin free before PCBs were added (20 µM or 30 µM). Controls included cells grown in the presence of 1% ethanol (vol/vol) (negative control) or […] 4-nitroquinoline 1-oxide (positive control). Following further incubation for 24 h, cells were synchronized by adding Cytochalasin B. Subsequently, cells were harvested by trypsinization, centrifuged (2,000g, 10 min), and washed with DPBS (Dulbecco’s PBS). For hypotonic shock, 4 °C cold potassium chloride solution was added to the cells under agitation. Cells were completely resuspended and incubated at room temperature for 5 min. After centrifugation (2,500g, 10 min), the supernatant was discarded. To fix the cells, they were treated with a methanol/acetic acid solution (− 20 °C), with a minimum incubation time of 15 min at room temperature. Following centrifugation (2,500g, 10 min), the supernatant was discarded, and the fixation process was repeated at least three times. Finally, the samples were dissolved in 1 mL of fixative solution and incubated overnight at 4 °C. For analysis, two to three drops from each sample were placed on a glass slide, with intermittent heating of the slide. Subsequently, the cells were visualized with acridine orange, and using a fluorescence microscope (Leica DM6000B, Filter I3 450–490 nm), 2,000 cells per sample were counted.

[4] = PCB concentrations in plasma of HELPcB participants (2010); format: in vivo, human; details: human, plasma, other: occupational exposure, sample of 2010
[5] = system: HEK293CYP2A6 cells; assay: Light microscopic evaluation of HEK293CYP2A6 cells; format: cell-based, human; details: 24 h of incubation (data not shown)
[6] = system: HEK293CYP2A6 cells; assay: MTT assay in HEK293CYP2A6 cells; format: cell-based, human; details: for Concentration from which the fraction of cell viability affected (FA) increased: HEK293CYP2A6 cells, MTT; for IC50: Homo sapiens, HEK293CYP2A6 cell line, read-out: IC50 (MTT, cell viability / metabolic activity); for PCB concentration at which the difference between HEK293 cells and CYP2A6 transgenic cells becomes statistically significant: MTT assay, Fig. 2
Procedure: For the determination of metabolic activity, HEK293 cells as well as transgenic HEK293CYP2A6 and HEK293CYP2C9 cells were plated into 96-well flat-bottomed microtiter plates (Becton Dickinson, Heidelberg, Germany) at a density of 1 × 10^5 cells in 100 μL of media. Cells were allowed to grow for 24 h geneticin free before PCBs were added. Controls included cells grown in medium with and without ethanol (maximal 1% (vol/vol)) added. After 48 h, the ability of remaining viable cells to transform 3-(4,5-dimethylthiazol-2-yl)-2,5-diphenyltetrazolium bromide (MTT) into formazan was assessed (MTT Cell Proliferation Assay, ATCC, Manassas, USA). The absorbance of the samples was measured on a Microplate Reader (FLUOstar, BMG Labtech, Ortenberg, Germany) at 450 nm.

[7] = molecular target: T1, CYP2A6 (Homo sapiens, UniProt P11509); assay: Urinary 1,7-dimethyluric acid/paraxanthine metabolic ratio after caffeine (CYP2A6 phenotyping); details: urine, 0–360 min after 50 mg caffeine oral; ten PCB-exposed subjects
T1 sequence (P11509 1-494): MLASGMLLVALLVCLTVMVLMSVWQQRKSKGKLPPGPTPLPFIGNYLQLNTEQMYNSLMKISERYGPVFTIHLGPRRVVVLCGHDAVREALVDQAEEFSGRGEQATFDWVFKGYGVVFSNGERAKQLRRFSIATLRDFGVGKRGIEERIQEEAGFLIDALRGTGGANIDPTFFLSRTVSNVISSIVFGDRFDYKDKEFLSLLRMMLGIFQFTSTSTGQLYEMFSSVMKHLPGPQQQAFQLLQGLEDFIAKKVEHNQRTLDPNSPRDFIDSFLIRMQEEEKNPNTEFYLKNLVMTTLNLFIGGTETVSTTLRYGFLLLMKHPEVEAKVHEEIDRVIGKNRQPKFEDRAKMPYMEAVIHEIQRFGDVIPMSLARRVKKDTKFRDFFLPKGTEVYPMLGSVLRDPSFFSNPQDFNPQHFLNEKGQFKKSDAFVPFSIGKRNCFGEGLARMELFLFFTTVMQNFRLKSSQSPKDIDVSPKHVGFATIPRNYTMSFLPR
Source text: Ten subjects with prior occupational exposure to PCBs and ten controls were included into a clinical CYP phenotyping cocktail study at the Institute for Occupational, Social and Environmental Medicine, University Hospital RWTH Aachen. PCB-exposed participants were reinvited from the HELPcB (Health Effects in High-Level Exposure to PCB) medical surveillance program. […] Subjects were allowed to consume non-caffeinated beverages and received a meal 3 following the administration of the drug cocktail. Concentrations of the test compounds and their CYP-mediated metabolites were measured using LC–MS, with urine sampling over 24 h with 5 time points at 1,2,4,6, and 24 h after drug cocktail intake. […] Urine samples were weighed during sampling.
20 µL urine or calibrators and quality controls in Sigmatrix urine diluent (SAE0074-1L, Sigma-Aldrich) were protein precipitated with 80 µL methanol including 1000 ng/mL internal standards caffeine-d9, paraxanthine-d6, and 1,7-dimethyluric acid-d3. Samples were briefly vortexed and centrifuged for 5 min at 17,000g and 4 °C. […] Caffeine and paraxanthine were detected in positive ion mode and 1,7-dimethyluric acid in negative ion mode. […] The metabolic ratio for 1,7-dimethyluric acid/paraxanthine was calculated based on the measured urine concentrations. […]

[8] = system: fish cells; parameters: method as in Marabini et al. [2011]; details: ref Marabini et al. [2011]; cited from earlier work
[9] = system: human lung fibroblast; parameters: method as in Hashmi et al. [2015]; details: higher concentrations compared to lower concentrations; ref Hashmi et al. [2015]; cited from earlier work
[10] = system: HEK293CYP2A6 cells; assay: Micronucleus assay in HEK293CYP2A6 cells; format: cell-based, human; details: HEK293CYP2A6 cells; 20 and 30 µM, 24 h
Procedure: as §2

[11] = system: human lymphocytes; parameters: method as in Sargent et al. [1989]; details: ref Sargent et al. [1989]; cited from earlier work
[12] = system: mouse fibroblasts; parameters: method as in Stadnicki et al. [1979]; details: ref Stadnicki et al. [1979]; cited from earlier work
[13] = system: human lymphocytes; parameters: method as in Stadnicki et al. [1979]; details: ref Stadnicki et al. [1979]; cited from earlier work
[14] = system: bone marrow and liver; parameters: method as in Sargent et al. [1992]; details: ref Sargent et al. [1992]; cited from earlier work
[15] = system: Salmonella typhimurium strains; parameters: method as in Wyndham et al. [1976]; details: PCB52 and its primary metabolites; ref Wyndham et al. [1976]; cited from earlier work

SMILES	DNA damage classified according to the comet scale (percentage of tail DNA) ([1]; 20 µM)	DNA damage classified according to the comet scale (percentage of tail DNA) ([1]; 30 µM)	Comet assay: percentage of tail DNA / DNA damage above background [1]	Percentages of micronuclei [3]	concentration at 2010 calendar year ([4]; HELPcB participant AD) [ng/mL]	concentration at 2010 calendar year ([4]; HELPcB participant AE) [ng/mL]	concentration at 2010 calendar year ([4]; HELPcB participant eight) [ng/mL]	concentration at 2010 calendar year ([4]; HELPcB participant five) [ng/mL]	concentration at 2010 calendar year ([4]; HELPcB participant four) [ng/mL]	concentration at 2010 calendar year of sampling ([4]; HELPcB participant one) [ng/mL]	concentration at 2010 calendar year ([4]; HELPcB participant seven) [ng/mL]	concentration at 2010 calendar year ([4]; HELPcB participant six) [ng/mL]	concentration at 2010 calendar year ([4]; HELPcB participant three) [ng/mL]	concentration at 2010 calendar year of sampling ([4]; HELPcB participant two) [ng/mL]	Light microscopic evaluation: type of effect [5]	Concentration from which the fraction of cell viability affected (FA) increased [6] [µM]	IC50 [6] [µM]	PCB concentration at which the difference between HEK293 cells and CYP2A6 transgenic cells becomes statistically significant [6] [µM]	Percentages of micronuclei [10]	further results
Clc1ccc(-c2ccc(Cl)cc2Cl)cc1 [PCB28, 2,4,4′-trichlorobiphenyl]	moderate damage	moderate damage	concentration-dependent increase	inactive	0.823	1.48	0.1	0.21	0.023	2.69	0.051	0.309	0.999	0.019	primarily cytotoxic effects (cell death)	10	27	40		Comet assay: increase in percentage of tail DNA [2]: not evident
Cn1c(=O)[nH]c2[nH]c(=O)n(C)c2c1=O [1,7-DMU, 1,7-dimethyluric acid]																				Logarithmically transformed metabolic ratio of 1,7-DMU and paraxanthine, median [7]: 0.4
Clc1ccc(Cl)c(-c2cc(Cl)c(Cl)cc2Cl)c1 [PCB101, 2,2′,4,5,5′-pentachlorobiphenyl]	high damage	moderate damage	DNA damage was also seen	inactive	0.073	0.005	0.005	0.111	0.005	0.519	0.03	0.227	0.078	0.005	cytostatic effects (proliferation arrest)	20	34.8	60	approximately threefold elevated	Genotoxicity compared with etoposide (comet assay) ([1]; etoposide 10 µm positive control): more potent than of etoposide; DNA strand breaks [8]: induce; Micronucleus formation [8]: induce; Genotoxicity [9]: increased significantly
Clc1ccc(Cl)c(-c2cc(Cl)ccc2Cl)c1 [PCB52, 2,2′,5,5′-tetrachlorobiphenyl]	low damage	low damage	not	indistinguishable effects	0.026	0.005	0.005	0.031	0.005	0.348	0.021	0.043	0.04	0.005	cytostatic effects (proliferation arrest)	20	26.2	40	diminished effect	Sister chromatid exchange [11]: negative; DNA strand breaks [12]: positive or weakly positive; DNA strand breaks [13]: positive or weakly positive; Chromosomal aberrations in vivo [14]: absence of chromosomal aberrations; Mutagenic activity [15]: did not exhibit mutagenic activity
